No end group written: not given here.
Columns and labels:
[1] = system: Ova-peptide pulsed EL4 cells; assay: Cytotoxicity of spleen cells from vaccinated mice, 18-hour chromium release assay; type: in vivo, C57BL/6 mice; settings: mice immunized with the single component alone
Protocol: The purified hsp70 was combined with the synthesized peptides and used for immunization. To form the hsp70/peptide mixtures, approximately 15 μg (21.5 μM) hsp70 was combined with 5 μg of ova-peptide (0.5 mM, SEQ. ID. NO: 7) or 10 μg (0.5 mM) hybrid peptide (SEQ. ID NOS: 8 and 9) were mixed on ice to a final volume of 10 μl in Buffer B (final concentration: 20 mM Hepes pH 7.0, 150 mM KCl, 10 mM (NH4)2SO4, 2 mM MgCl2 and 2 mM MgADP, pH 7.0). The mixtures were incubated for 30 minutes at 37° C. and then used for in vivo immunizations.
C57BL/6 mice were immunized intradermally once a week for a total of two weeks with 10 μL of one of the mixtures described above or with a mixture of TITERMAX® (Vaxcell, Norcross, Ga.) and Ova-peptide (5 μg). One week after the second immunization, spleen cells were removed and mononuclear cells (6-8×10^7) were cultured with 3×10^6 γ-irradiated (3000 rad) stimulator cells. The stimulator cells were obtained from naive mice that had been sensitized in vitro with Ova-peptide (10 mg/ml) for 30 minutes at room temperature, washed and irradiated at 3000 rads.
Cytotoxicity of spleen cells from vaccinated mice were assayed on Ova-peptide pulsed EL4 cells in an 18-hour chromium release assay. CTL were generated by culturing in vivo immunized spleen cells for 5 days at a concentration of 10^6 cells/mL in RPMI medium, 10% FCS, penicillin, streptomycin and 2 mM L-glutamine, together with 3×10^6 γ-irradiated (3,000 rad) stimulator cells/mL. Target cells were prepared by culturing cells for 1 hour in the presence of 250 μCi of ^51Cr sodium chromate (DuPont, Boston, Mass.) in Tris-phosphate buffer, pH 7.4 at 37° C. for 60 minutes. After washing, 10^4 ^51Cr-labeled target cells were mixed with effector lymphocytes to yield several different effector/target (E/T) ratios and were incubated for 18 hours. Supernatants were harvested and the radio-activity was measured in a gamma counter. Percent specific lysis was calculated as: 100×[(cpm release by CTL-cpm spontaneous release)/(cpm maximal release—cpm spontaneous release)]. Maximal response was determined by addition of 1% Triton X-100. Spontaneous release of all target in the absence of effector cells was less than 25% of the maximal release.

hsp70 = molecular target: T1, hsp70 (Mus musculus, UniProt P17879); assay: Binding of 14C-labeled OVA-BiP to heat shock protein, co-elution on Sephacryl S-300 column; settings: 100 μM 14C-labeled peptide, 50 μg hsp70, 37° C., 30 minutes
T1 construct: made in house; host or cells: E. coli DH5α, plasmid pMS236
T1 sequence (P17879 whole entry): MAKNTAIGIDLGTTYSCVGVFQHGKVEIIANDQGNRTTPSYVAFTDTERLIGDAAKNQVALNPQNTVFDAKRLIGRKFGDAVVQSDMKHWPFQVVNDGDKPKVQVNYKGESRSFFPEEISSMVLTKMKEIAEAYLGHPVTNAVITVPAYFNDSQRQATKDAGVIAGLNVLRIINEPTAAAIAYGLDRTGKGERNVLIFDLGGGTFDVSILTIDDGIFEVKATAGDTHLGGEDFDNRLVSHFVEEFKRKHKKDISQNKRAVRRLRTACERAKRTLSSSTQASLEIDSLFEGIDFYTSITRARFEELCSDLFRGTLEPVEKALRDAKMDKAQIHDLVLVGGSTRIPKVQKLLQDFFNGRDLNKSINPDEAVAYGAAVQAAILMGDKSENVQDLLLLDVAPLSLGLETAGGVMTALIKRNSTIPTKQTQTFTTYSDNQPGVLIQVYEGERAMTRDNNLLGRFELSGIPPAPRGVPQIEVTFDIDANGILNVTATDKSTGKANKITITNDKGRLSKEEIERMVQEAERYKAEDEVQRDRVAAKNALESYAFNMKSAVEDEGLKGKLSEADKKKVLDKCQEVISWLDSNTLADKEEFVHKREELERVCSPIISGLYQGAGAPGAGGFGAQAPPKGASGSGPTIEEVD
Protocol: Purified mouse cytosolic hsp70 was prepared from E. coli DH5α cells transformed with pMS236 encoding mouse cytosolic hsp70. The cells were grown to an optical density (600 nm) of 0.6 at 37° C., and expression was induced by the addition of IPTG to a final concentration of 1 mM. Cells were harvested by centrifugation 2 to 5 hours post induction and the pellets were resuspended to 20 mL with Buffer A (20 mM Hepes pH 7.0, 25 mM KCl, 1 mM DTT, 10 mM (NH4)2SO4, 1 mM PMSF). The cells were lysed by passing three times through a French press. The lysate was cleared by a low speed spin, followed by centrifugation at 100,000×G for 30 minutes. The cleared lysate was applied to a Pharmacia XK26 column packed with 100 mL DEAE Sephacel and equilibrated with Buffer A at a flow rate of 0.6 cm/min. The column was washed to stable baseline with Buffer A and eluted with Buffer A adjusted to 175 mM KCl. […]
The ability of the OVA-BiP peptide to bind to heat shock proteins was measured by incubating 100 μM (5μg) ^14C-labeled OVA-BiP with 50 μg of BiP (prepared as in example 11), hsp70 (as prepared in Example 2) or grp96 (prepared as in Example 10) in a final volume of 20 μl of buffer (50 mM Mops, pH 7.2., […] NaCl, 5 mM MgAcetate) at 37° C. for 30 minutes. […] 50 μl of each ˜225 μl fraction was counted in scintillation liquid. […]

BiP [2] = molecular target: T2, BiP (Mus musculus, UniProt P20029); assay: as above; settings: 100 μM 14C-labeled peptide, 50 μg BiP, 37° C., 30 minutes
T2 construct: mature wild-type or KDEL-deleted BiP can be harvested from the periplasm; extra Met (initiator ATG of the 5' primer, ahead of the mature N-terminus) (N); made in house; host or cells: E. coli BL21, pET22, periplasmic extract
T2 sequence (P20029 20-655): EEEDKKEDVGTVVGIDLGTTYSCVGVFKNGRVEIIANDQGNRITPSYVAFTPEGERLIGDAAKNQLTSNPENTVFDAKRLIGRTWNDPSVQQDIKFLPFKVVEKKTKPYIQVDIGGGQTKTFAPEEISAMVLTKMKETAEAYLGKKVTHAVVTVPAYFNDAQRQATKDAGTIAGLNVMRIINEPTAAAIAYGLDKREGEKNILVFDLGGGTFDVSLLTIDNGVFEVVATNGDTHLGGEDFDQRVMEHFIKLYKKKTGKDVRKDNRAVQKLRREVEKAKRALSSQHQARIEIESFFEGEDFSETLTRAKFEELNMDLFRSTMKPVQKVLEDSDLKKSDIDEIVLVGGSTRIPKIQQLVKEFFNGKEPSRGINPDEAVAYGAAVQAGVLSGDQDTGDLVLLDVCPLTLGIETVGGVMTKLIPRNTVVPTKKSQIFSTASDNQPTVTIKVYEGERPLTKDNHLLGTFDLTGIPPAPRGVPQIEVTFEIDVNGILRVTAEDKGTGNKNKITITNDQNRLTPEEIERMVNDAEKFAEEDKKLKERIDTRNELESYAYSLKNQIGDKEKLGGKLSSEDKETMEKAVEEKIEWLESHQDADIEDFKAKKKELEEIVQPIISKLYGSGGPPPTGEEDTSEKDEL
Protocol: ^14C-labeled OVA-BiP was prepared by alkylation of OVA-BiP with ^14C-formaldehyde. 0.9 mg of OVA-BiP in 300 uL 10% DMSO/water was added to 175 μl of ^14C-formaldehyde (62 μCi) and immediately 50 uL of freshly made up 200 mM NaCNBH3 was added. The reaction was mixed and left at 25° C. for 3 hours. The labeled peptide was repurified by reverse phase HPLC on a C-4 column in a 15 minute 0-100% acetonitrile (0.1% TFA) gradient.
The ability of the OVA-BiP peptide to bind to heat shock proteins was measured by incubating 100 μM (5μg) ^14C-labeled OVA-BiP with 50 μg of BiP (prepared as in example 11), hsp70 (as prepared in Example 2) or grp96 (prepared as in Example 10) in a final volume of 20 μl of buffer (50 mM Mops, pH 7.2., […] NaCl, 5 mM MgAcetate) at 37° C. for 30 minutes. The samples were then spun down (5 minutes in a microfuge) and loaded onto a 17 cm long Sephacryl S-300 column equilibrated in binding buffer (50 mM Mops, pH 7.2., 200 mM NaCl, 5 mM MgAcetate) and fractions were collected dropwise. 50 μl of each ˜225 μl fraction was counted in scintillation liquid. 10 μl of each fraction was also run on a 12% SDS-PAGE reducing gel. […] The result for gp96 is unclear because the peak at fraction 11 (which may represent an aggregation phenomenon) and the gp96 peak (fraction 14) elute close together on the column used.

BiP [3] = molecular target: T2, BiP; assay: ATP-mediated peptide release, elution profile of 125I-OVA-BiP and BiP; type: binding; settings: presence and absence of 2 mM ATP
Protocol: To prepare ^125I-OVA-BiP, 250 μCi of monoiodinated Bolton-Hunter reagent was transferred into a stoppered vial and the solvent in which it was dissolved was evaporated with a gentle stream of argon gas. To the dried reagent 222 μL of 4.5 mg/mL OVA-BiP in 100 mM NaBO3, pH 8, […], 10% DMSO was added. The reaction was mixed and incubated at 25° C. for 45 minutes and continued at 4° C. for a further hour. The labeled peptide was repurified by reverse phase HPLC on a C-4 column in a 20 minute, 0-100% acetonitrile (0.1% TFA) gradient. The iodinated OVA-BiP was combined with BiP in substantially the same manner as the heat shock proteins in Example 7, except that since the iodinated peptide was at a very low concentration, 1 μl (approx 32 ng) of labeled peptide was mixed with 5 μg of unlabeled peptide and this was incubated with 50 μg of BiP in 20 μL of binding buffer. To observe ATP-mediated peptide release, ATP was added to a final concentration of 2 mM after the 30 minute incubation and incubated for a further 5 minutes prior to spinning. These samples were run on the same column as above, but equilibrated in binding buffer supplemented with 2 mM ATP. […] This is consistent with the observation that ATP mediates release of bound proteins or polypeptides from heat shock proteins.

release of hybrid peptide from BiP on addition of ATP (FIG. 7) (BiP [3])	Substance	results on cells pulsed with Ova-peptide (FIG. 5A) versus cells not pulsed (FIG. 5B) [1]	radio-activity co-eluting with heat shock protein (FIG. 6) (hsp70)	radio-activity co-eluting with heat shock protein (FIG. 6) (BiP [2])
–	HWDFAWPWGSGSIINFEKL [BiP-OVA]	the same	–	–
–	SIINFEKLGSGHWDFAWPW [OVA-BiP]	the same	significant amount of radio-activity elutes with BiP and hsp70	significant amount of radio-activity elutes with BiP
–	Ser-Ile-Ile-Asn-Phe-Glu-Lys-Leu (SIINFEKL) [Ova-peptide, OVA antigenic domain peptide, reference compound]	the same	–	–
addition of ATP causes the release	^125I-OVA-BiP: OVA-BiP labeled with monoiodinated Bolton-Hunter reagent (SIINFEKLGSGHWDFAWPW; also: labelled with monoiodinated (125I) Bolton-Hunter reagent, place not given here)	–	–	–
–	hsp70: purified recombinant mouse cytosolic hsp70 from E. coli DH5α transformed with pMS236	the same	–	–

From US6673348B2, “Heat shock protein-based vaccines and immunotherapies” (priority 1995, dated 2004)
